Test results taken from PMC12615863, “Improving GRPR-targeting peptides for radiotheranostics application: insights from chelator modifications and α-methyl-L tryptophan substitution” (EJNMMI Radiopharmacy and Chemistry, 2025).
Where two headings read alike, the source gives them in different places.

Columns and labels:
[1] = In vivo stability: intact radiopeptide in peripheral mouse blood 5 min pi, radio-HPLC; conditions: for Percentage of intact peptide, Entresto: blood 5 min pi
Method: Two animals per peptide were injected intravenously with a bolus of test radioligand (50 MBq, 2 nmol of peptide in 100 μL PBS/EtOH v/v 9:1) – Control group. To inhibit NEP, additional groups of two mice per compound were orally treated with 12 mg Entresto® (Novartis, Basel, Switzerland) 30 min before receiving the intravenous injection—Entresto group. Five minutes post-injection (pi), the animals were euthanized, and the blood was collected and immediately mixed with EDTA (0.1 mM, 40 μL) in Eppendorf tubes on ice. The mixture was spun at 2000 g for 10 min at 4 °C in an Eppendorf Centrifuge 5430 R (Eppendorf AG, Hamburg, Germany), and the plasma was collected and diluted with an equal volume of MeCN (4 °C). After a second centrifugation at 15,000 g and 4 °C for 10 min, the supernatant was collected in an Eppendorf tube and concentrated to 50–100 μL at 50 °C using a mild stream of N2. PBS was added to the samples to reach a final volume of 200 μL, and the solutions were filtered through a syringe filter (0.22 μm, 13 mm, VWR International, Radnor, USA). The filtered solution was analyzed by reversed-phase radio-HPLC to determine the percentage of intact peptides. The peak corresponding to the intact peptide was identified by injection of an aliquot of the labeling solution.

[2] = tested on: PC-3 cells; test: In vitro GRPR specificity assay (uptake with or without NOTA-PEG2-RM26 block); format: cell-based, human
Method: After discarding the medium, the cells were washed with cold (4 °C) phosphate-buffered saline containing 1% w/v bovine serum albumin (PBS/BSA). The radiopeptides (Cf = 1 nM in 1 mL PBS/BSA) were added to all wells. A subset of wells was also treated with an excess of unlabeled GRPR-binding peptide NOTA-PEG2-RM26 (Bjäreback et al. [2025]) (Cf = 1 µM in 1 mL PBS/BSA) to block GRPR. After incubation for 1 h at 37 °C, the supernatant was removed, and the cells were washed and then collected by treating them with 1 M NaOH. The activity of the collected samples was measured with the gamma counter. This assay was performed in triplicate for each radiopeptide.

[3] = Biodistribution in mice bearing PC-3 xenografts; format: in vivo, Balb/c nu/nu mice; conditions: mouse, total radioactivity; for tissue uptake at 4 h / tissue uptake dose at 4 h: 4 h pi; for tissue uptake at 24 h / tissue uptake dose at 24 h: 24 h pi
Method: (§1) Each mouse was xenografted with a subcutaneous injection of 8 × 10⁶ PC-3 cells in the right hind leg. After approximately 4 weeks, the animals were injected into the tail vein with 100 µL of radiopeptide (100 pmol—110–130 kBq, diluted in PBS/BSA). Four animals were used for each time point per peptide. […] At the determined time points, the mice were euthanized, organs were collected and weighed, and their activity content was measured in the gamma counter. Results were presented as the percentage of injected activity per gram (%IA/g) for the collected organs, and the percentage of injected activity (%IA) for the gastrointestinal tract (GI) and the carcass. […] Statistical analysis was performed with GraphPad Prism 10 using two way ANOVA with Tuckey’s or Šidák’a post hoc analysis.

[4] = tested on: PC-3 xenografts; test: Biodistribution in mice bearing PC-3 xenografts; format: in vivo, Balb/c nu/nu mice; conditions: PC-3 xenografted mice, between 4 and 24 h pi
Method: as §1

[5] = Balb/c nu/nu, blood, iv, 100 pmol, PC-3 xenografted Balb/c nu/nu mice, iv 100 pmol, mean ± SD, n = 4, read-out: Blood activity uptake
[6] = Balb/c nu/nu, bone, iv, 100 pmol, PC-3 xenografted Balb/c nu/nu mice, iv 100 pmol, mean ± SD, n = 4, read-out: Bone activity uptake
[7] = Balb/c nu/nu, kidneys, iv, 100 pmol, PC-3 xenografted Balb/c nu/nu mice, iv 100 pmol, mean ± SD, n = 4, read-out: Kidneys activity uptake
[8] = Balb/c nu/nu, liver, iv, 100 pmol, PC-3 xenografted Balb/c nu/nu mice, iv 100 pmol, mean ± SD, n = 4, read-out: Liver activity uptake
[9] = Balb/c nu/nu, lungs, iv, 100 pmol, PC-3 xenografted Balb/c nu/nu mice, iv 100 pmol, mean ± SD, n = 4, read-out: Lungs activity uptake
[10] = Balb/c nu/nu, muscle, iv, 100 pmol, PC-3 xenografted Balb/c nu/nu mice, iv 100 pmol, mean ± SD, n = 4, read-out: Muscle activity uptake
[11] = Balb/c nu/nu, pancreas, iv, 100 pmol, PC-3 xenografted Balb/c nu/nu mice, iv 100 pmol, mean ± SD, n = 4, read-out: Pancreas activity uptake
[12] = Balb/c nu/nu, small intestine, iv, 100 pmol, PC-3 xenografted Balb/c nu/nu mice, iv 100 pmol, mean ± SD, n = 4, read-out: Small Int. activity uptake
[13] = Balb/c nu/nu, spleen, iv, 100 pmol, PC-3 xenografted Balb/c nu/nu mice, iv 100 pmol, mean ± SD, n = 4, read-out: Spleen activity uptake
[14] = Balb/c nu/nu, stomach, iv, 100 pmol, PC-3 xenografted Balb/c nu/nu mice, iv 100 pmol, mean ± SD, n = 4, read-out: Stomach activity uptake
[15] = Balb/c nu/nu, tumor, iv, 100 pmol, PC-3 xenografted Balb/c nu/nu mice, iv 100 pmol, mean ± SD, n = 4, read-out: Tumor activity uptake
[16] = carcass, PC-3 xenografted Balb/c nu/nu mice, iv 100 pmol, mean ± SD, n = 4, read-out: Body activity uptake
[17] = gastrointestinal tract with content, PC-3 xenografted Balb/c nu/nu mice, iv 100 pmol, mean ± SD, n = 4, read-out: GI activity uptake

In the case of `CC(C)C[C@H](NC(=O)C[C@H](O)[C@H](CC(C)C)NC(=O)[C@H](Cc1c[nH]cn1)NC(=O)CN(C)C(=O)[C@@H](NC(=O)[C@H](C)NC(=O)[C@](C)(Cc1c[nH]c2ccccc12)NC(=O)[C@H](CCC(N)=O)NC(=O)[C@@H](Cc1ccccc1)NC(=O)CN1CCC(NC(=O)COCCOCCNC(=O)CCC(C(=O)O)N2CCN(CC(=O)O)CCN(CC(=O)O)CCN(CC(=O)O)CC2)CC1)C(C)C)C(N)=O` (stereo partly drawn) [[^177Lu]Lu-PKB2, metal not drawn], the “Percentage of intact peptide, Entresto” value ([1]; NMRI mice, 12 mg Entresto orally 30 min before injection, recorded value n1) is reported as 92%, the “Percentage of intact peptide, Entresto” value ([1]; NMRI mice, 12 mg Entresto orally 30 min before injection, recorded value n2) is reported as 94% and the “Percentage of intact peptide, Entresto” value ([1]; healthy NMRI mice, 12 mg Entresto orally 30 min before iv injection (NEP inhibition), radio-HPLC, mean of n = 2) is reported as 93%. The “Percentage of intact peptide, Control” value ([1]; healthy NMRI mice, iv 50 MBq, 2 nmol, peripheral blood 5 min pi, radio-HPLC, mean of n = 2) was 85% [81% - 90%], the “in vitro binding specificity” value ([2]; 1 nM radiopeptide, 1 h at 37 °C, block with 1 µM NOTA-PEG2-RM26, n = 3) was “GRPR-mediated activity uptake” and the “total cellular activity uptake (rank among the three radiopeptides)” value ([2]; 1 nM, 37 °C, n = 3) was “lowest”. For the same molecule, the tissue uptake at 2 h ([3]; Balb/c nu/nu, blood, iv, 100 pmol, PC-3 xenografted Balb/c nu/nu mice, iv 100 pmol, 2 h pi, mean ± SD, n = 4, read-out: Blood activity uptake) was 0.13 ± 0.05 %ID/g, the tissue uptake at 4 h [3, 5] was 0.07 ± 0.03 %ID/g and the tissue uptake at 24 h [3, 5] was 0.01 ± 0.01 %ID/g. The tissue uptake at 2 h ([3]; Balb/c nu/nu, blood, iv, PC-3 xenografted Balb/c nu/nu mice, iv 100 pmol, 2 h pi blocked (co-injected 100-fold molar excess NOTA-PEG2-RM26), mean ± SD, n = 3, read-out: Blood activity uptake) was 0.06 ± 0.02 %ID/g, the tissue uptake at 2 h ([3]; Balb/c nu/nu, blood, lungs, spleen, muscle, bone, iv, 100 pmol, PC-3 xenografted mice, 2 h pi, read-out: activity uptake in non-target organs (blood, lungs, spleen, muscle, and bone)) was less than 0.6 %ID/g and the tissue uptake at 2 h ([3]; Balb/c nu/nu, bone, iv, 100 pmol, PC-3 xenografted Balb/c nu/nu mice, iv 100 pmol, 2 h pi, mean ± SD, n = 4, read-out: Bone activity uptake) was 0.13 ± 0.07 %ID/g. It also gave a tissue uptake at 4 h [3, 6] of 0.14 ± 0.05 %ID/g, a tissue uptake at 24 h [3, 6] of 0.09 ± 0.04 %ID/g and a tissue uptake at 2 h ([3]; Balb/c nu/nu, bone, iv, PC-3 xenografted Balb/c nu/nu mice, iv 100 pmol, 2 h pi blocked (co-injected 100-fold molar excess NOTA-PEG2-RM26), mean ± SD, n = 3, read-out: Bone activity uptake) of 0.13 ± 0.03 %ID/g. The tissue uptake dose ([3]; Balb/c nu/nu, gastrointestinal tract with content, iv, 100 pmol, PC-3 xenografted mice, all time points (2, 4, 24 h pi), read-out: activity uptake for the GI with content) was less than 2 %ID, the tissue uptake at 2 h ([3]; Balb/c nu/nu, kidneys, iv, 100 pmol, PC-3 xenografted Balb/c nu/nu mice, iv 100 pmol, 2 h pi, mean ± SD, n = 4, read-out: Kidneys activity uptake) was 8.9 ± 2.5 %ID/g and the tissue uptake at 4 h [3, 7] was 9.5 ± 2.1 %ID/g. It also gave a tissue uptake at 24 h [3, 7] of 5.5 ± 0.6 %ID/g, a tissue uptake at 2 h ([3]; Balb/c nu/nu, kidneys, iv, PC-3 xenografted Balb/c nu/nu mice, iv 100 pmol, 2 h pi blocked (co-injected 100-fold molar excess NOTA-PEG2-RM26), mean ± SD, n = 3, read-out: Kidneys activity uptake) of 7.6 ± 1.2 %ID/g and a tissue uptake at 2 h ([3]; Balb/c nu/nu, liver, iv, 100 pmol, PC-3 xenografted Balb/c nu/nu mice, iv 100 pmol, 2 h pi, mean ± SD, n = 4, read-out: Liver activity uptake) of 0.24 ± 0.05 %ID/g. It also gave a tissue uptake at 4 h [3, 8] of 0.2 ± 0.03 %ID/g, a tissue uptake at 24 h [3, 8] of 0.14 ± 0.02 %ID/g and a tissue uptake at 2 h ([3]; Balb/c nu/nu, liver, iv, PC-3 xenografted Balb/c nu/nu mice, iv 100 pmol, 2 h pi blocked (co-injected 100-fold molar excess NOTA-PEG2-RM26), mean ± SD, n = 3, read-out: Liver activity uptake) of 0.2 ± 0.02 %ID/g. It also gave a tissue uptake at 4 h [3, 9] of 0.3 ± 0.2 %ID/g, a tissue uptake at 24 h [3, 9] of 0.07 ± 0.01 %ID/g and a tissue uptake at 2 h ([3]; Balb/c nu/nu, lungs, iv, PC-3 xenografted Balb/c nu/nu mice, iv 100 pmol, 2 h pi blocked (co-injected 100-fold molar excess NOTA-PEG2-RM26), mean ± SD, n = 3, read-out: Lungs activity uptake) of 0.21 ± 0.03 %ID/g. The tissue uptake at 2 h ([3]; Balb/c nu/nu, muscle, iv, 100 pmol, PC-3 xenografted Balb/c nu/nu mice, iv 100 pmol, 2 h pi, mean ± SD, n = 4, read-out: Muscle activity uptake) was 0.07 ± 0.06 %ID/g, the tissue uptake at 4 h [3, 10] was 0.05 ± 0.02 %ID/g and the tissue uptake at 24 h [3, 10] was 0.02 ± 0.01 %ID/g. For the same molecule, the tissue uptake at 2 h ([3]; Balb/c nu/nu, muscle, iv, PC-3 xenografted Balb/c nu/nu mice, iv 100 pmol, 2 h pi blocked (co-injected 100-fold molar excess NOTA-PEG2-RM26), mean ± SD, n = 3, read-out: Muscle activity uptake) was 0.04 ± 0.01 %ID/g, the tissue uptake at 2 h ([3]; Balb/c nu/nu, pancreas, iv, 100 pmol, PC-3 xenografted Balb/c nu/nu mice, iv 100 pmol, 2 h pi, mean ± SD, n = 4, read-out: Pancreas activity uptake) was 7.3 ± 3 %ID/g and the tissue uptake at 4 h [3, 11] was 2.9 ± 1 %ID/g. The tissue uptake at 24 h [3, 11] was 0.43 ± 0.09 %ID/g, the tissue uptake at 2 h ([3]; Balb/c nu/nu, small intestine, iv, 100 pmol, PC-3 xenografted Balb/c nu/nu mice, iv 100 pmol, 2 h pi, mean ± SD, n = 4, read-out: Small Int. activity uptake) was 0.8 ± 0.5 %ID/g and the tissue uptake at 4 h [3, 12] was 0.5 ± 0.2 %ID/g. The tissue uptake at 24 h [3, 12] was 0.07 ± 0.04 %ID/g, the tissue uptake at 2 h ([3]; Balb/c nu/nu, small intestine, iv, PC-3 xenografted Balb/c nu/nu mice, iv 100 pmol, 2 h pi blocked (co-injected 100-fold molar excess NOTA-PEG2-RM26), mean ± SD, n = 3, read-out: Small Int. activity uptake) was 0.3 ± 0.1 %ID/g and the tissue uptake at 2 h ([3]; Balb/c nu/nu, spleen, iv, 100 pmol, PC-3 xenografted Balb/c nu/nu mice, iv 100 pmol, 2 h pi, mean ± SD, n = 4, read-out: Spleen activity uptake) was 0.15 ± 0.07 %ID/g. For the same molecule, the tissue uptake at 4 h [3, 13] was 0.15 ± 0.06 %ID/g, the tissue uptake at 24 h [3, 13] was 0.11 ± 0.04 %ID/g and the tissue uptake at 2 h ([3]; Balb/c nu/nu, spleen, iv, PC-3 xenografted Balb/c nu/nu mice, iv 100 pmol, 2 h pi blocked (co-injected 100-fold molar excess NOTA-PEG2-RM26), mean ± SD, n = 3, read-out: Spleen activity uptake) was 0.12 ± 0.04 %ID/g. For the same molecule, the tissue uptake at 4 h [3, 14] was 1.3 ± 0.2 %ID/g, the tissue uptake at 24 h [3, 14] was 0.14 ± 0.07 %ID/g and the tissue uptake at 2 h ([3]; Balb/c nu/nu, stomach, iv, PC-3 xenografted Balb/c nu/nu mice, iv 100 pmol, 2 h pi blocked (co-injected 100-fold molar excess NOTA-PEG2-RM26), mean ± SD, n = 3, read-out: Stomach activity uptake) was 0.36 ± 0.07 %ID/g. It also gave a tissue uptake at 2 h ([3]; Balb/c nu/nu, stomach, small intestines, iv, 100 pmol, PC-3 xenografted mice, 2 h pi, read-out: activity uptake in the stomach and small intestines) of less than 2.5 %ID/g, a tissue uptake at 2 h ([3]; Balb/c nu/nu, tumor, iv, 100 pmol, PC-3 xenografted Balb/c nu/nu mice, iv 100 pmol, 2 h pi, mean ± SD, n = 4, read-out: Tumor activity uptake) of 15.8 ± 3.7 %ID/g and a tissue uptake at 4 h [3, 15] of 15.3 ± 1.4 %ID/g. It also gave a tissue uptake at 24 h [3, 15] of 12.1 ± 1.3 %ID/g, a tissue uptake at 2 h ([3]; Balb/c nu/nu, tumor, iv, PC-3 xenografted Balb/c nu/nu mice, iv 100 pmol, 2 h pi blocked (co-injected 100-fold molar excess NOTA-PEG2-RM26), mean ± SD, n = 3, read-out: Tumor activity uptake) of 3.1 ± 0.9 %ID/g and a tissue uptake dose at 2 h ([3]; carcass, PC-3 xenografted Balb/c nu/nu mice, iv 100 pmol, 2 h pi, mean ± SD, n = 4, read-out: Body activity uptake) of 1.8 ± 1.3 %ID. It also gave a tissue uptake dose at 4 h [3, 16] of 2.3 ± 0.8 %ID, a tissue uptake dose at 24 h [3, 16] of 0.5 ± 0.1 %ID and a tissue uptake dose at 2 h ([3]; gastrointestinal tract with content, PC-3 xenografted Balb/c nu/nu mice, iv 100 pmol, 2 h pi, mean ± SD, n = 4, read-out: GI activity uptake) of 1.5 ± 0.4 %ID. The tissue uptake dose at 4 h [3, 17] was 0.7 ± 0.2 %ID, the tissue uptake dose at 24 h [3, 17] was 0.3 ± 0.2 %ID and the “tumor retention of activity” value [4] was “around 80%”.
